Experimental data taken from patent US5215983A, “Carbapenem compounds” (Fujisawa Pharmaceutical Co., Ltd., priority 1989, dated 1993).

Tested on: P. aeruginosa 2
Experiment: in vitro Antimicrobial Activity (two-fold agar-plate dilution method)
Assay type: cell-based
Settings: Pseudomonas aeruginosa, 10^6 viable cells per ml, heart infusion agar, 37° C. for 20 hours, read-out: MIC (minimal inhibitory concentration)
Procedure: in vitro Antimicrobial Activity was determined by the two-fold agar-plate dilution method as described blow.
One loopful of an overnight culture of a test strain in Trypticase-soy broth (10^6 viable cells per ml) was streaked on heart infusion agar (HI-agar) containing graded concentrations of the test compound, and the minimal inhibitory concentration (MIC) was expressed in terms of μg/ml after incubation at 37° C. for 20 hours.

Compound `C[C@@H](O)[C@H]1C(=O)N2C(C(=O)O)=C(S[C@@H]3CN[C@H](CN4CCCn5c4cc[n+]5C)C3)[C@H](C)[C@H]12` [Example 1-3, (4R,5S,6S)-6-[(1R)-1-hydroxyethyl]-4-methyl-3-[(2S,4S)-2-{1-methyl-4,5,6,7-tetrahydro-4-pyrazolo[1,5-a]pyrimidinio}methylpyrrolidin-4-yl]thio-7-oxo-1-azabicyclo[3.2.0]-hept-2-ene-2-carboxylic acid chloride] has an MIC of 0.39 µg/mL.
